Reference: ChEMBL document CHEMBL3352781, “Synthesis, antileishmanial and antitrypanosomal activities of N-substituted tetrahydro-β-carbolines” (Bioorg Med Chem Lett, 2014)
pIC50: −log10 of the molar value. Activity calls are given as the source filed them. The rule behind the calls is not given here.

Tests used:
LLC-PK1 = assay: Cytotoxicity against pig LLC-PK1 cells after 48 hrs by neutral red assay; assay type: cell-based; conditions: Sus scrofa, LLC-PK1, 48 h
THP-1 = assay: Cytotoxicity against human THP1 cells up to 10 ug/ml after 48 hrs by neutral red assay; assay type: cell-based; conditions: thp-1, 48 h
Trypanosoma brucei = assay: Antimicrobial activity against trypamastigote stage of Trypanosoma brucei after 72 hrs by Alamar Blue assay; assay type: functional, organism-based
HepG2 = assay: Cytotoxicity against human HepG2 cells after 48 hrs by neutral red assay; assay type: cell-based; conditions: HepG2, 48 h
Leishmania donovani [1] = assay: Antimicrobial activity against axenic amastigote stage of Leishmania donovani after 72 hrs by Alamar Blue assay; assay type: functional, organism-based; conditions: Leishmania donovani, 72 h; for pIC50: read-out: IC50
Leishmania donovani [2] = assay: Antimicrobial activity against promastigote stage of Leishmania donovani infected in human THP1 cells after 72 hrs by Alamar Blue assay; assay type: functional, organism-based
Leishmania donovani [3] = assay: Antimicrobial activity against promastigote stage of Leishmania donovani after 72 hrs by Alamar Blue assay; assay type: functional, organism-based; conditions: Leishmania donovani, 72 h; for pIC50: read-out: IC50
Leishmania infantum [4] = assay: Antimicrobial activity against amastigote stage of Leishmania infantum; assay type: functional, organism-based
[5] = system: Trypanosoma brucei brucei; assay: Antimicrobial activity against bloodstream form of Trypanosoma brucei brucei TC221; assay type: functional, organism-based
Leishmania infantum [6] = assay: Antimicrobial activity against promastigote stage of Leishmania infantum; assay type: functional, organism-based

In the case of `O=C(c1ccc([N+](=O)[O-])s1)N1CCc2c([nH]c3ccccc23)C1`, the pIC50 (LLC-PK1) was 4.25, the Activity (THP-1) was “Non-toxic” and the IC50 (Trypanosoma brucei) was “Not Active”. The IC90 (Trypanosoma brucei) was “inactive”, the pIC50 (HepG2) was 4.20 and the IC90 (Leishmania donovani [1]) was 107 µM. For the same compound, the pIC50 (Leishmania donovani [1]) was 4.20, the IC90 (Leishmania donovani [2]; THP-1) was “inactive” and the IC50 (Leishmania donovani [2]; thp-1) was “Not Active”. It also gave an IC90 (Leishmania donovani [3]) of 36.6 µM and a pIC50 (Leishmania donovani [3]) of 4.90.
In the case of `COc1ccc2c(c1)[nH]c1c(C)nccc12` [HARMINE], the pIC50 (Leishmania infantum [4]) was 6.64, the pIC50 [5] was 4.13 and the pIC50 (Trypanosoma brucei; Trypanosoma brucei, 72 h, read-out: IC50) was 4.13. The pIC50 (Leishmania donovani [1]) was 6.64, the pIC50 (Leishmania infantum [6]) was 5.43 and the pIC50 (Leishmania donovani [3]) was 5.43.
